The values below come from patent US12396948B2, “Pharmaceutical compositions for the treatment of ophthalmic conditions” (Rhodes Technologies, priority 2017, dated 2025).

The conditions of data set [1]: cited from earlier work.
In the next data set the test system is mouse. Kind of data set: Repeated dosing study on IOP lowering effects (Example 58). It counts as in vivo. The conditions noted are these: for maximum IOP reduction: twice daily 7 days, vs contralateral untreated eye. As for the experimental part: Study protocol is similar to Dose-Response Relationship Study described above, except that the animals are divided into three groups (as specified below). A single 5 μL drop was instilled topically onto one eye of each mouse twice daily starting at time 0 of Day 1.
The contralateral eye was untreated. IOP of both eyes was measured at −1 h (baseline), 2 h, 4 h, 6 h, 8 h, 12 h. […] In addition to IOP measurement, animals were evaluated for possible ocular and gross systemic adverse effects. • Group 1: Vehicle • Group 2: Dronabinol (optimal concentration determined in studies above) • Group 3: Timolol (0.5%) Results: The results are presented in FIGS. 28 and 29, which illustrate comparison of IOP effects of the Dronabinol formulations, vehicle, and Timolol. The formulations were administered twice daily at 8-9 AM (Time 0) and 4-5 PM starting Day 1 till Day 7. The upper panel reports IOP values at the indicated time points after dosing (IOP at Time 0 was obtained immediately prior to the morning dosing) of Days 1, 4, and 7. The bottom panel represents % IOP change compared to the contralateral untreated eye, whose IOP defines 100%. Data are shown as mean±SEM.

Data set [2] has as its system Female C57BL/6J mice. Kind of data set: Conscious mouse IOP after single topical drop (Example 57). It counts as in vivo. Particulars: for maximal IOP effect: conscious mice. As for the experimental part: Female C57BL/6J mice (Jackson Laboratories, Bar Harbor, ME; age 2-3 months) were kept in 12 h light/12 h dark conditions (lights on 0600 h) and fed with standard chow. All experimental procedures were conducted in accordance with the ARVO Statement for the Use of Animals in Ophthalmic and Vision Research, and the University of North Texas Health Science Center Institutional Animal Care and Use Committee Regulations and Guidelines.
Dronabinol ophthalmic solutions (0.05% and 0.5%) and the corresponding vehicle were provided by Rhodes Technologies. Timolol maleate 0.5% (Hi. Tech Pharmacal) was purchased. Formulation AE10C-B was prepared as described above (Table 44).
The 2-tailed unpaired Student's t-test was used for comparison of results at the same time point between two study groups. P values of less than 0.05 were considered significant. All data are presented as mean±SEM.

Data set [3] relates to Female C57BL/6J mice. Kind of data set: Mouse aqueous humor dynamics by constant flow infusion (Example 57). Particulars: 0.5% emulsion.
Source text: Briefly, immediately following bilateral tonometry in anesthetized animals, both eyes received a drop of proparacaine HCl (0.5%) for topical anesthesia, and both anterior chambers were cannulated with a 30G needle (one per eye) connected to previously calibrated BLPR-2 flow-through pressure transducers (World Precision Instruments (WPI), Sarasota, FL) for the continuous determination of pressure. A drop of PBS was also given to each eye topical ocular to prevent corneal drying. The opposing end of each transducer was connected to a 3-way valve, which in turn was connected to: (a) a 50 FAL glass microsyringe (Hamilton Company, Reno, NV) filled with sterile PBS loaded into an SP101i microdialysis infusion pump (WPI), and (b), an open ended, variable height manometer. Signals from the pressure transducers were passed via a TBM4M Bridge Amplifier (WPI) and a Lab-Trax analog-to-digital converter (WPI) to a computer. Data were recorded using LabScribe2 software (WPI).
The manometer was closed to the circuit and eyes were infused at a flow rate of 0.1 μL/min. When pressure had stabilized, pressure measurements were recorded, and flow rate was increased sequentially to 0.2, 0.3, 0.4, and 0.5 μL/min. Three stabilized pressures (spaced 5 min apart) at each flow rate were recorded. Aqueous outflow facility (C) in each eye of each animal was calculated as the reciprocal of the slope of a plot of Mean Stabilized Pressure as ordinate against Flow Rate as abscissa.
Episcleral venous pressure (Pe) was estimated using the blood reflux method. Briefly, following anterior chamber cannulation, the manometer was opened to the circuit, manometric pressure was set to equal pre-cannulation (anesthetized) TOP, and then manometric pressure was lowered incrementally (at the rate of 1 mmHg/min) until the point at which blood was seen (using a dissection microscope under 30× magnification) to reflux into the scleral collector channels and then Schlemm's canal. The manometric pressure at which Schlemm's canal was seen to fill with refluxed blood was regarded as Pe.
After completion of the above measurements, animals were euthanized by anesthetic overdose and, 20 min following euthanasia, C was measured again. Thus values for Clive and C dead were obtained. Following euthanasia, both aqueous humor formation rate (Fin) and Pe are equal to zero, and via algebraic rearrangement of the modified Goldmann equation {IOP=[(Fin−Fu)/C]+Pe}, values for Fu were thus calculated for each individual perfusion rate and corresponding TOP. The mean of those resultant 5 values was reported as Fu.
Aqueous Humor Formation Rate (Fin) was calculated for each eye by further algebraic rearrangement of the modified Goldmann equation: Fin=[C×(IOP−Pe)]+Fu.
Data set [4] is described as follows: Impurity profile of antioxidant excipient solutions (Example 42). It counts as physicochemical. The conditions noted are these: for Impurity (% Area) Total / Impurity (% w/w) Total: excipient solution; for Impurity (% w/w) Total: converted to levels corresponding to antioxidant concentrations in the dronabinol formulations.

Counter-ions that a name gives are not always drawn.

As for `CCCOC(=O)c1cc(O)c(O)c(O)c1` [Propyl Gallate], the “Solub. in Water” value in data set [1] is listed as 0.35 g/100 mL water.

For `O=S([O-])S(=O)(=O)[O-].[K+].[K+]` [Potassium Metabisulfite], the “Solub. in Water” value in data set [1] is listed as 49.5 g/100 mL water.

Take `CC(C)(C)NC[C@H](O)COc1nsnc1N1CCOCC1` [Timolol, Timolol maleate]: the “prolonged IOP reduction (baseline IOP at Days 4 & 7)” value with mouse (0.5%, twice daily) was “did not produce this prolonged IOP reduction”. For the same molecule, the “maximum IOP reduction” value in the data set on mouse (0.5%) is 35.1%. In addition, in the data set with Female C57BL/6J mice [2] (0.5%, positive control), the “effect on mouse IOP” value is given as “lowered mouse TOP as expected”.

Turning to `O=S([O-])S(=O)(=O)[O-].[Na+].[Na+]` [Sodium Metabisulfite], the “Solub. in Water (in words)” value in data set [1] is “Freely”.

On to `O=C(O)/C=C/C(=O)O` [Fumaric Acid], for which, in data set [1], the “Solub. in Water” value is 0.007 mg/L.

As to `O=C(O)CC(O)C(=O)O` (centres unmarked) [Malic Acid], in data set [1], the “Solub. in Water” value is recorded as 59.2 g/100 mL water.

Take `OCC(O)CS` (centres unmarked) [Monothioglycerol]: in data set [1], the “Solub. in Water (in words)” value was “Slightly”.

Regarding `CCCCCCCCCCCCCCCC(=O)OC[C@H](O)[C@H]1OC(=O)C(O)=C1O` [Ascorbyl Palmitate], the “Solub. in Water” value in data set [1] is 0.07 mg/L.

Regarding `CCCCCc1cc(O)c2c(c1)OC(C)(C)[C@@H]1CCC(C)=C[C@@H]21` [Dronabinol, (−)-trans-Δ^9-tetrahydrocannabinol], the “maximum IOP reduction” value in the data set with mouse (0.005% formulation) was 19.8%. Also, in the data set on mouse (0.015% formulation), the “maximum IOP reduction” value was 25.7%. Moreover, the “maximum IOP reduction” value in the data set with mouse (0.05% formulation) is reported as 33.2%. Besides, in the data set on mouse (0.05%, lowered baseline IOP at Days 4 & 7), the duration of action was above 16 h. The “tachyphylaxis or adverse effect” value with mouse (7-day twice daily dosing, 0.005%, 0.015%, 0.05%) is “No tachyphylaxis or adverse effect was observed”. In the data set with Female C57BL/6J mice [3], the ocular adverse effect result is recorded as “No ocular adverse effect was observed”. Besides, in the data set with Female C57BL/6J mice [3] (2 h after treatment), the “IOP lowering in anesthetized animals” value was determined as 29.9%; the “aqueous humor formulation rate, change” value is reported as −21.6%; the “aqueous outflow facility, increase” value is given as 54.5%; the “episcleral venous pressure, change” value is given as −26.8%. Further, in the data set on Female C57BL/6J mice [2] (0.05% and 0.5%, single 5 μL drop), the “IOP reduction at 24 h after treatment” value is listed as “still significant”. In addition, the “ocular, systemic, or behavioral adverse effects” value with Female C57BL/6J mice [2] (0.05% and 0.5%, single topical drop) is “No ocular, systemic, or behavioral adverse effects were observed”. Moreover, in the data set with Female C57BL/6J mice [2] (0.05% ophthalmic solution, single 5 μL drop, @ 6 h), the “maximal IOP effect” value is recorded as −22.3%. In addition, the “maximal IOP effect” value in the data set on Female C57BL/6J mice [2] (0.5% ophthalmic solution, single 5 μL drop, @ 2 h) was −25.8%.

In the case of `COc1ccc(O)c(C(C)(C)C)c1` [Butylated Hydroxyanisole (BHA)], in data set [1], the “Solub. in Water (in words)” value was “Insoluble”.

On to `O=S([O-])([O-])=S.[Na+].[Na+]` [Sodium Thiosulfate], for which, in data set [4], the “Impurity (% Area) Total” value is 0.0 % Area and the “Impurity (% w/w) Total” value came to 0.0 % w/w.

Regarding `O=S=O` [Sulfur Dioxide], the “Solub. in Water” value in data set [1] is given as 8.5 g/100 mL water.

As to `CC(=O)OC/C=C(C)/C=C/C=C(C)/C=C/C1=C(C)CCCC1(C)C` [Vitamin A], in data set [4] (0.5% Vitamin A), the “RRT 0.83 in testing of excipients” value is around 0.5 % w/w.

Turning to `O=S([O-])[O-].[Na+].[Na+]` [Sodium Sulfite], in data set [4], the “Impurity (% Area) Total” value came to 0.0 % Area and the “Impurity (% w/w) Total” value turned out to be 0.0 % w/w.

Vitamin E: the “Solub. in Water (in words)” value in data set [1] is given as “Insoluble”.
